Values of other authors, collected in patent publication US7780647B2, “Medical device with therapeutic agents” (Cook Incorporated, priority 2003, dated 2010).

How the values were obtained:
[1] = tested on: smooth muscle cell proliferation; settings: both in vitro and in vivo
[2] = tested on: restenosis of human coronary arteries; settings: following stent use

Compound: CC(=O)O[C@H]1C(=O)[C@@]2(C)[C@H]([C@H](OC(=O)c3ccccc3)[C@]3(O)C[C@H](OC(=O)[C@H](O)[C@@H](NC(=O)c4ccccc4)c4ccccc4)C(C)=C1C3(C)C)[C@]1(OC(C)=O)CO[C@@H]1C[C@@H]2O [paclitaxel]
- smooth muscle cell proliferation [1]: inhibits smooth muscle cell proliferation
- restenosis of human coronary arteries [2]: decrease restenosis
